{"source": "patent US5185366A", "about": "“Method for treatment and prevention of diseases caused by enveloped viruses, including herpes simplex virus types 1 and 2 diseases, using 3,4-dihydroxy-2H-benzopyran-2H-one” (Ohio State University Research Foundation, priority 1990, dated 1993)", "key": {"[1]": {"tested_on": "HSV-1", "experiment": "Extracellular activity, inhibition of plaque forming units, HSV-1", "settings": "for extracellular antiviral activity: HSV-1, 10 μM; for Plaque Forming Units Mean ± SD: extracellular"}, "[2]": {"tested_on": "VSV", "experiment": "microbe, parasite or virus in culture", "assay_type": "cell-based, Vesicular stomatitis virus"}, "[3]": {"tested_on": "VSV", "experiment": "microbe, parasite or virus in culture", "assay_type": "cell-based, Vesicular stomatitis virus", "remark": "listed apart in the source"}, "[4]": {"tested_on": "Poliovirus-2", "experiment": "organism not typed", "assay_type": "cell-based"}, "[5]": {"tested_on": "HSV", "experiment": "Selectivity among the viruses tested", "assay_type": "cell-based, Herpes simplex virus"}, "[6]": {"tested_on": "HSV-1", "experiment": "Intracellular activity, inhibition of plaque forming units, HSV-1", "assay_type": "cell-based, Herpes simplex virus type 1", "settings": "for intracellular antiviral activity: HSV-1, 10 μM; for Plaque Forming Units Mean ± SD: intracellular"}, "[7]": {"tested_on": "Buffalo green monkey kidney (BGM 70) cells", "experiment": "[3H]-thymidine uptake cytotoxicity", "assay_type": "cell-based", "settings": "for inhibition at 0.4 µM / inhibition at 1.6 µM / inhibition at 2.5 µM / inhibition at 10 µM: Chlorocebus sabaeus, read-out: % Inhibition of [3H]-Thymidine Incorporated; for inhibition at 0.4 µM: 0.4 μmol/L; for inhibition at 1.6 µM: 1.6 μmol/L; for inhibition at 2.5 µM: 2.5 μmol/L; for inhibition at 10 µM: 10.0 μmol/L; for toxicity ([3H]-thymidine uptake and/or cell growth): at 10 μM"}, "[8]": {"tested_on": "HSV-2", "experiment": "HSV-2 plaque size, extracellular treatment", "assay_type": "cell-based, Herpes simplex virus type 2", "settings": "Human alphaherpesvirus 2, extracellularly, read-out: % Inhib (mean plaque diameter)"}, "[9]": {"settings": "listed as 3,4-dihydroxy-2H-1-benzopyran-2-one"}}, "note": "Where two headings read alike, the source gives them in different places.", "data": [{"compound": "O=c1oc2ccccc2c(O)c1O", "note": "[Compound 5, 3,4-dihydroxy-2H-1-benzopyran-2-one]", "values": [{"measurement": "extracellular antiviral activity", "setting": "[1]", "value": "shows both intra- and extra- cellular antiviral activity"}, {"measurement": "extracellular antiviral activity", "setting": "[1]; [9]", "value": "exhibits both intracellular and extracellular activity"}, {"measurement": "inhibition at 10 µM", "setting": "[1]; Human alphaherpesvirus 1, extracellular, HSV-1 + 1 × Cmpd (10 μM), relative viral conc 10", "value": 82, "unit": "%"}, {"measurement": "inhibition at 10 µM", "setting": "[1]; Human alphaherpesvirus 1, extracellular, HSV-1 + 1 × Cmpd (10 μM), relative viral conc 100", "value": 76, "unit": "%"}, {"measurement": "inhibition at 20 µM", "setting": "[1]; Human alphaherpesvirus 1, extracellular, HSV-1 + 2 × Cmpd (20 μM), relative viral conc 10", "value": 98, "unit": "%"}, {"measurement": "inhibition at 20 µM", "setting": "[1]; Human alphaherpesvirus 1, extracellular, HSV-1 + 2 × Cmpd (20 μM), relative viral conc 100", "value": 95, "unit": "%"}, {"measurement": "inhibition at 10 µM", "setting": "[1]; Human alphaherpesvirus 1, read-out: % Inhibition of Plaque Forming Units, Extracellularly, HSV-1, 10 μM", "value": "76.4 ± 2.2", "unit": "%"}, {"measurement": "inhibition at 10 µM", "setting": "[1]; Human alphaherpesvirus 1, read-out: reduction (PFU), extracellularly, HSV-1, 10 μM level, P<0.01", "value": "76 to 98", "unit": "%"}, {"measurement": "Plaque Forming Units Mean ± SD", "setting": "[1]; HSV-1 + 1 × Cmpd (10 μM), relative viral conc 10", "value": "2.6 ± 1.6"}, {"measurement": "Plaque Forming Units Mean ± SD", "setting": "[1]; HSV-1 + 1 × Cmpd (10 μM), relative viral conc 100", "value": "40.6 ± 3.8"}, {"measurement": "Plaque Forming Units Mean ± SD", "setting": "[1]; HSV-1 + 2 × Cmpd (20 μM), relative viral conc 10", "value": "0.3 ± 0.5"}, {"measurement": "Plaque Forming Units Mean ± SD", "setting": "[1]; HSV-1 + 2 × Cmpd (20 μM), relative viral conc 100", "value": "9.3 ± 1.5"}, {"measurement": "extracellular antiviral activity", "setting": "[2]; VSV, n=2", "value": "no antiviral activity"}, {"measurement": "inhibition at 10 µM", "setting": "[2]; Vesicular stomatitis virus, read-out: % Inhibition of Plaque Forming Units, Extracellularly", "value": 0, "unit": "%"}, {"measurement": "intracellular antiviral activity", "setting": "[3]; VSV, n=2", "value": "no antiviral activity"}, {"measurement": "inhibition at 10 µM", "setting": "[3]; Vesicular stomatitis virus, read-out: % Inhibition of Plaque Forming Units, Intracellularly", "value": 0, "unit": "%"}, {"measurement": "extracellular antiviral activity", "setting": "[4]; poliovirus-2, n=2", "value": "no antiviral activity"}, {"measurement": "inhibition at 10 µM", "setting": "[4]; read-out: % Inhibition of Plaque Forming Units, Extracellularly", "value": 2.7, "unit": "%"}, {"measurement": "selectivity for HSV among the viruses tested", "setting": "[5]", "value": "selective for HSV among the viruses tested"}, {"measurement": "intracellular antiviral activity", "setting": "[6]", "value": "shows both intra- and extra- cellular antiviral activity"}, {"measurement": "intracellular antiviral activity", "setting": "[6]; [9]", "value": "exhibits both intracellular and extracellular activity"}, {"measurement": "inhibition at 10 µM", "setting": "[6]; Human alphaherpesvirus 1, HSV-1, 10 μM, P<0.01, read-out: inhibition (PFU), intracellularly", "value": "25 to 39", "unit": "%"}, {"measurement": "inhibition at 10 µM", "setting": "[6]; Human alphaherpesvirus 1, HSV-1, 10 μM, read-out: % Inhibition of Plaque Forming Units, Intracellularly", "value": "38.4 ± 5.7", "unit": "%"}, {"measurement": "inhibition at 10 µM", "setting": "[6]; Human alphaherpesvirus 1, intracellular, HSV-1: 1 × Cmpd (10 μM), relative viral conc 10, read-out: % Inhibition", "value": 25, "unit": "%"}, {"measurement": "inhibition at 10 µM", "setting": "[6]; Human alphaherpesvirus 1, intracellular, HSV-1: 1 × Cmpd (10 μM), relative viral conc 100, read-out: % Inhibition", "value": 38, "unit": "%"}, {"measurement": "Plaque Forming Units Mean ± SD", "setting": "[6]; HSV-1: 1 × Cmpd (10 μM), relative viral conc 10", "value": "11.0 ± 1.0"}, {"measurement": "Plaque Forming Units Mean ± SD", "setting": "[6]; HSV-1: 1 × Cmpd (10 μM), relative viral conc 100", "value": "106.6 ± 9.3"}, {"measurement": "inhibition at 0.4 µM", "setting": "[7]; 24 h", "value": 0, "unit": "%"}, {"measurement": "inhibition at 1.6 µM", "setting": "[7]; 24 h", "value": 0, "unit": "%"}, {"measurement": "inhibition at 2.5 µM", "setting": "[7]; 24 h", "value": 0, "unit": "%"}, {"measurement": "inhibition at 10 µM", "setting": "[7]; 24 h", "value": "28.4 ± 7.6", "unit": "%"}, {"measurement": "inhibition at 0.4 µM", "setting": "[7]; 48 h", "value": 0, "unit": "%"}, {"measurement": "inhibition at 1.6 µM", "setting": "[7]; 48 h", "value": 0, "unit": "%"}, {"measurement": "inhibition at 2.5 µM", "setting": "[7]; 48 h", "value": 0, "unit": "%"}, {"measurement": "inhibition at 10 µM", "setting": "[7]; 48 h", "value": "26.3 ± 6.3", "unit": "%"}, {"measurement": "inhibition at 0.4 µM", "setting": "[7]; 72 h", "value": 0, "unit": "%"}, {"measurement": "inhibition at 1.6 µM", "setting": "[7]; 72 h", "value": 0, "unit": "%"}, {"measurement": "inhibition at 2.5 µM", "setting": "[7]; 72 h", "value": 0, "unit": "%"}, {"measurement": "inhibition at 10 µM", "setting": "[7]; 72 h", "value": 0, "unit": "%"}, {"measurement": "toxicity ([3H]-thymidine uptake and/or cell growth)", "setting": "[7]", "value": "no toxicity"}, {"measurement": "toxicity ([3H]-thymidine uptake and/or cell growth)", "setting": "[7]; [9]", "value": "non-toxic"}, {"measurement": "inhibition at 10 µM", "setting": "[8]; relative viral conc 1", "value": 6, "unit": "%"}, {"measurement": "inhibition at 10 µM", "setting": "[8]; relative viral conc 10", "value": 1, "unit": "%"}, {"measurement": "inhibition at 20 µM", "setting": "[8]; 20 μM, relative viral conc 10", "value": 1, "unit": "%"}]}]}
